Several values for one entry are separate records, joined by “and”; a condition that tells them apart may be missing. Equal entries are not always repeated.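 Growth conditions: 96-well plates. Treatment: test compound, 48 hours, 5 concentrations. Analysis: linear interpolation between bracketing concentrations; unreached endpoints set to highest concentration. GI50 = concentration required for 50% inhibition of growth. TGI marks complete inhibition of growth.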
System: MDA-MB-468 breast
Assay: NCI-60 cell line screen, 48 h

Question: With `Cn1ncc2cc(-c3cnc(N)c(Cl)c3N3CCC4(CCNC4=O)CC3)ccc21` as the compound, how does the GI50 read?
Answer: 16.4 µM

Question: What about the TGI of the same compound?
Answer: 63.1 µM

Question: For `CCOc1ccc(NC(=O)Nc2cc(C(C)C)ccc2C)cc1`, which GI50 is on record?
Answer: 5.67 µM

Question: What about the TGI of the same compound?
Answer: 51.8 µM

Question: How did the GI50 turn out when `COc1ccc(-c2cc3c4c(nc5ccccc5c4c2)CC(c2cc(OC)c(OC)c(OC)c2)O3)cc1` (centres undefined) was run?
Answer: 2.63 µM

Question: And the TGI?
Answer: 10.5 µM

Question: Which GI50 does the source give for `COC1=CC(c2ccc[nH]2)=N/C1=C\c1[nH]c(C)c(C(=O)CCC(=O)Oc2ccc3c(c2)CCC2C3CC[C@]3(C)C(=O)CC[C@@H]23)c1C` (some centres undefined) here?
Answer: 16.9 µM

Question: What about the TGI of the same compound?
Answer: > 100 µM

Question: How did the GI50 turn out when `Cc1nc2sc(C(=O)Nc3cccc4ccccc34)c(N)c2cc1C(C)O` (centres undefined) was run?
Answer: 0.126 µM

Question: And the TGI?
Answer: 0.416 µM

Question: What does the source list for `Cc1c(Cl)cccc1NC(=O)CC1Sc2ccccc2NC1=O` (centres undefined)?
Answer: GI50: 12.8 µM; TGI: 37.4 µM

Question: For `O=C(c1ccccc1)c1ccc(-c2ccc(O)cc2)cc1`, which GI50 is on record?
Answer: 1.94 µM

Question: And the TGI?
Answer: 8.86 µM

Question: `O=C(NCc1cn(Cc2cccc(Oc3ccccc3)c2)nn1)c1cccnc1Nc1ccccc1` was tested. Which GI50 did it give?
Answer: 2.88 µM

Question: What about the TGI of the same compound?
Answer: 57.4 µM

Question: What does the source list for `CCOC(=O)C1(Cc2ccc(C)cc2)Cc2ccc(C)cc2C1=O` (centres undefined)?
Answer: GI50: 10.4 µM; TGI: 37.4 µM

Question: For `O=C1Nc2ccc(Cl)cc2/C1=C\c1c(-c2ccc(F)cc2)nc2ccccn12`, which GI50 is on record?
Answer: 2.08 µM

Question: What about the TGI of the same compound?
Answer: 6.19 µM

Question: With `Cc1ccc(S(=O)(=O)N(C)C)cc1[N+](=O)[O-]` as the compound, how does the GI50 read?
Answer: > 100 µM

Question: What about the TGI of the same compound?
Answer: > 100 µM

Question: For `C[C@@H]1O[C@@H](O[C@H]2C[C@@H](O)[C@]3(CO)C4C(CC[C@]3(O)C2)[C@@]2(O)CC[C@H](C3=CC(=O)OC3)[C@@]2(C)C[C@H]4O)[C@H](O)[C@H](O)[C@H]1O` (some centres undefined), which GI50 is on record?
Answer: 0.0841 µM

Question: And the TGI?
Answer: 0.187 µM

Question: How did the GI50 turn out when `O=C1Nc2ccc(F)c3c(OCCO)cc(-c4ccc[nH]4)c1c23` was run?
Answer: 0.528 µM

Question: And the TGI?
Answer: 1.83 µM

Question: With `Cc1cc(N(CCCl)CCCl)ccc1C=Nc1cccnc1` as the compound, how does the GI50 read?
Answer: 0.0712 µM

Question: And the TGI?
Answer: 0.521 µM

Question: Which GI50 does the source give for `COc1ccc2c(c1)Oc1nc(N)c(C#N)c(N)c1C2Sc1ccc(SC)cc1` (centres undefined) here?
Answer: 1.75 µM

Question: What about the TGI of the same compound?
Answer: 3.59 µM

Question: Which GI50 does the source give for `COc1ccc(/C=C2/CN(C(=O)c3ccccc3F)C/C(=C\c3ccc(OC)cc3)C2=O)cc1` here?
Answer: 1.91 µM

Question: What about the TGI of the same compound?
Answer: 4.49 µM

Question: Which GI50 does the source give for `Cn1cc(-c2cc3c(Nc4ccc(CC(=O)Nc5cc(C(C)(C)C)on5)cc4)ncnc3[nH]2)cn1` here?
Answer: 0.325 µM and 0.242 µM

Question: What about the TGI of the same compound?
Answer: 1.08 µM and 0.737 µM

Question: With `COc1cnc2c(c1)C(=O)c1c-2n(CCCn2ccnc2)c(=O)c2cc(OC)c(OC)cc12` as the compound, how does the GI50 read?
Answer: 0.0511 µM

Question: What about the TGI of the same compound?
Answer: 0.358 µM

Question: What does the source list for `C=C1C(=O)O[C@H]2[C@H]1CC/C(COC(=O)OCCCCCOC(=O)OC/C1=C/CC[C@@]3(C)O[C@H]3[C@H]3OC(=O)C(=C)[C@@H]3CC1)=C\CC[C@@]1(C)O[C@@H]21`?
Answer: GI50: 0.186 µM; TGI: 0.458 µM

Question: Which GI50 does the source give for `O=C(NNc1nc2cc(F)ccc2n2c(CN3CCOCC3)ccc12)c1ccccc1` here?
Answer: 0.193 µM

Question: And the TGI?
Answer: 0.894 µM

Question: With `Cn1ncc2c(Nc3ccc(Br)cc3)nc(Nc3ccc(Br)cc3)nc21` as the compound, how does the GI50 read?
Answer: 2.11 µM

Question: And the TGI?
Answer: 7.78 µM

Question: How did the GI50 turn out when `CCCC[C@@H]1NC(=O)[C@H](CCCCN)NC(=O)[C@H](CCCNC(=N)N)NC(=O)[C@H](CC(C)C)NC(=O)[C@@H](NC(=O)[C@H](Cc2cccc(Cl)c2)NC(=O)[C@@H]2CCCN2C(=O)[C@@H](NC(C)=O)C(C)C)CCSSC[C@@H](C(=O)N[C@@H](CCCCN)C(=O)N2CCC[C@H]2C(=O)N2CCC[C@H]2C(=O)N[C@@H](CCC(=O)O)C(N)=O)NC(=O)[C@H](Cc2ccccc2)NC(=O)[C@H](CO)NC(=O)[C@H](C)NC(=O)[C@@H]2CCCN2C1=O` was run?
Answer: > 50 µM

Question: What about the TGI of the same compound?
Answer: > 50 µM

Question: Which GI50 does the source give for `COCCNCC(O)Cn1c2ccc(Cl)cc2c2cc(Cl)ccc21` (centres undefined) here?
Answer: 1.78 µM

Question: And the TGI?
Answer: 3.85 µM

Question: How did the GI50 turn out when `CN(C(=O)c1ccc(F)cc1C(F)(F)F)C1CCN(c2nnc(-c3ccnn3C)c3ccccc23)CC1` was run?
Answer: 7.1 µM

Question: And the TGI?
Answer: 61.4 µM

Question: Which results are given for `CCC(=O)Sc1ccccc1C(=O)Nc1ccc(Cl)cc1`?
Answer: GI50: 9.97 µM; TGI: > 100 µM

Question: What does the source list for `ClCCN(CCCl)Cc1ccc(Nc2ccnc3cc(Cl)ccc23)cc1`?
Answer: GI50: 0.702 µM; TGI: 2.99 µM

Question: For `OCC1SC(n2cnc3cncnc32)C(O)C1O` (centres undefined), which GI50 is on record?
Answer: > 100 µM

Question: And the TGI?
Answer: > 100 µM

Question: Which GI50 does the source give for `CC1(C)CCC(S(=O)(=O)c2ccc3c(c2)/C(=N\O)c2cc(S(=O)(=O)N4CCC(O)(c5cccc(C(F)(F)F)c5)CC4)ccc2-3)CC1` here?
Answer: 0.0176 µM

Question: And the TGI?
Answer: 0.0356 µM

Question: For `CCCOC(=O)N[C@H]1CCc2c(Br)c(OC)c(OC)c(OC)c2-c2ccc(SC)c(=O)cc21`, which GI50 is on record?
Answer: < 0.01 µM

Question: And the TGI?
Answer: 18.1 µM

Question: Which results are given for `CS(=O)(=O)c1nccc(-c2c(-c3cccc(OCc4ccc(F)cc4)c3)nc3sccn23)n1`?
Answer: GI50: 1.99 µM; TGI: 3.98 µM

Question: How did the GI50 turn out when `O=S(=O)(Nc1ccc(-c2nc(-c3cccc(OCCN4CCOCC4)c3)c(-c3ccnc(Br)c3)[nH]2)cc1)c1ccccc1` was run?
Answer: 1.85 µM

Question: What about the TGI of the same compound?
Answer: 5.24 µM

Question: For `COC[C@H]1C(=O)NCC(=O)N2NCCC[C@H]2C(=O)N(O)[C@H](C)C(=O)O[C@@H](C(C)C)[C@H](NC(=O)[C@](C)(O)[C@]2(O)CC[C@@H](CC(C)C)[C@H](C)O2)C(=O)N2NCCC[C@@H]2C(=O)N1O`, which GI50 is on record?
Answer: 0.014 µM

Question: And the TGI?
Answer: 0.0311 µM

Question: `c1ccc2c(c1)O[As](O[As]1Oc3ccccc3O1)O2` was tested. Which GI50 did it give?
Answer: 1.25 µM

Question: What about the TGI of the same compound?
Answer: 4.04 µM

Question: What does the source list for `COc1ccc(OC)c(/C=C/[N+](=O)[O-])c1`?
Answer: GI50: 1.22 µM; TGI: 2.68 µM

Question: Which GI50 does the source give for `CO/N=C(\c1ccccc1)c1cnn(-c2ccccc2)c1N` here?
Answer: > 25 µM

Question: And the TGI?
Answer: > 25 µM

Question: Which results are given for `O=C1C(=O)c2ccc(Br)cc2-c2cc(Br)ccc21`?
Answer: GI50: 0.604 µM; TGI: 1.43 µM

Question: With `Brc1c[n+](Cc2ccc3ccccc3c2)cn1Cc1ccc2ccccc2c1` as the compound, how does the GI50 read?
Answer: 0.624 µM

Question: And the TGI?
Answer: 2.57 µM

Question: With `Cc1ccc(NS(=O)(=O)c2ccc(-c3cnc(C4CC4)o3)cc2)cc1` as the compound, how does the GI50 read?
Answer: 1.17 µM

Question: What about the TGI of the same compound?
Answer: 5.83 µM

Question: What does the source list for `OCCN1CCN(CCCN2c3ccccc3Sc3ccc(C(F)(F)F)cc32)CC1`?
Answer: GI50: 0.827 µM and 3.63 µM and 2.63 µM; TGI: 2.08 µM and 15.4 µM and 11.3 µM

Question: How did the GI50 turn out when `COc1ccc(-c2nc(-c3nc4ccc(F)cc4[nH]3)cc3c2[nH]c2ccccc23)cc1` was run?
Answer: 2.08 µM

Question: And the TGI?
Answer: > 100 µM

Question: What does the source list for `O=C1C=C(SCCO)C(=O)c2ccccc21`?
Answer: GI50: 1.51 µM; TGI: 3.46 µM

Question: For `COc1cc(O)c2c(c1)[C@H]1O[C@@H]1C[C@H](O)[C@H](O)C(=O)/C=C\C[C@H](C)OC2=O`, which GI50 is on record?
Answer: 1.1 µM

Question: What about the TGI of the same compound?
Answer: 5.64 µM

Question: How did the GI50 turn out when `FC(F)(F)c1cc(Nc2ccc3c(OCCCN4CCOCC4)cccc3n2)ccc1Cl` was run?
Answer: 2.17 µM

Question: What about the TGI of the same compound?
Answer: 5.92 µM

Question: For `COc1ccc2c(c1)O/C(=C\c1cccc(OCC(=O)Nc3nc4ccccc4s3)c1)C2=O`, which GI50 is on record?
Answer: 6.04 µM

Question: And the TGI?
Answer: > 100 µM

Question: What does the source list for `CN1CCN(c2ccc(Nc3nc(NCCCNS(=O)(=O)c4cccc5ccccc45)c4sccc4n3)cc2)CC1`?
Answer: GI50: 2.1 µM; TGI: 6.23 µM

Question: `O=C(CC12CC3CC(CC(C3)C1)C2)NCCOCCOCCNC(=O)c1cc2c(o1)C(=O)c1ccccc1C2=O` was tested. Which GI50 did it give?
Answer: 1.21 µM

Question: And the TGI?
Answer: 3.3 µM

Question: What does the source list for `COc1cc(-c2c3c(cn2S(=O)(=O)c2ccccc2)-c2nc(N)sc2CC3)cc(OC)c1OC`?
Answer: GI50: 0.426 µM; TGI: 22.2 µM

Source: PubChem BioAssay (NCI)
